Legend:
Carbonic anhydrase 9 = Carbonic anhydrase 9 (Homo sapiens, UniProt Q16790)
Description: Inhibition of human carbonic anhydrase 9 after 15 mins by stopped flow CO2 hydration method

Carbonic anhydrase 12 = Carbonic anhydrase 12 (Homo sapiens, UniProt O43570)
Description: Inhibition of human carbonic anhydrase 12 after 15 mins by stopped flow CO2 hydration method

Carbonic anhydrase 14 = Carbonic anhydrase 14 (Homo sapiens, UniProt Q9ULX7)
Description: Inhibition of human carbonic anhydrase 14 after 15 mins by stopped flow CO2 hydration method

Carbonic anhydrase 6 = Carbonic anhydrase 6 (Homo sapiens, UniProt P23280)
Description: Inhibition of human carbonic anhydrase 6 after 15 mins by stopped flow CO2 hydration method

Carbonic anhydrase 15 = target: T1, Carbonic anhydrase 15 (Mus musculus, UniProt Q99N23)
T1 sequence (Q99N23 whole entry): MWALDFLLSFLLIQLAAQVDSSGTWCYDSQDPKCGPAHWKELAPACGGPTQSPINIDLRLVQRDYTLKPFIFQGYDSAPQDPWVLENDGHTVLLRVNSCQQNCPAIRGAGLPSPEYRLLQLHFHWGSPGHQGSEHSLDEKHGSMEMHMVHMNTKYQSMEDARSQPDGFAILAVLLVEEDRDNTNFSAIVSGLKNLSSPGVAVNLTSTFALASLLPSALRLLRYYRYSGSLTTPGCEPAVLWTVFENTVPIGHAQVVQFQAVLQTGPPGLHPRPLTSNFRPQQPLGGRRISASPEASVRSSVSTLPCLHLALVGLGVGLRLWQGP
Description: Inhibition of mouse carbonic anhydrase 15 after 15 mins by stopped flow CO2 hydration method

[1] = target: Carbonic anhydrase 5A, mitochondrial (Homo sapiens, UniProt P35218)
Description: Inhibition of human carbonic anhydrase 5a after 15 mins by stopped flow CO2 hydration method

Carbonic anhydrase 3 = Carbonic anhydrase 3 (Homo sapiens, UniProt P07451)
Description: Inhibition of human carbonic anhydrase 3 after 15 mins by stopped flow CO2 hydration method

[2] = target: Carbonic anhydrase 5B, mitochondrial (Homo sapiens, UniProt Q9Y2D0)
Description: Inhibition of human carbonic anhydrase 5b after 15 mins by stopped flow CO2 hydration method

Carbonic anhydrase 4 = Carbonic anhydrase 4 (Homo sapiens, UniProt P22748)
Description: Inhibition of human carbonic anhydrase 4 after 15 mins by stopped flow CO2 hydration method

Carbonic anhydrase 13 = Carbonic anhydrase 13 (Homo sapiens, UniProt Q8N1Q1)
Description: Inhibition of human carbonic anhydrase 13 after 15 mins by stopped flow CO2 hydration method

Carbonic anhydrase 7 = Carbonic anhydrase 7 (Homo sapiens, UniProt P43166)
Description: Inhibition of human carbonic anhydrase 7 after 15 mins by stopped flow CO2 hydration method

Carbonic anhydrase 1 = Carbonic anhydrase 1 (Homo sapiens, UniProt P00915)
Description: Inhibition of human carbonic anhydrase 1 after 15 mins by stopped flow CO2 hydration method

Carbonic anhydrase 2 = Carbonic anhydrase 2 (Homo sapiens, UniProt P00918)
Description: Inhibition of human carbonic anhydrase 2 after 15 mins by stopped flow CO2 hydration method

Sequence of Carbonic anhydrase 3 (P07451 whole entry): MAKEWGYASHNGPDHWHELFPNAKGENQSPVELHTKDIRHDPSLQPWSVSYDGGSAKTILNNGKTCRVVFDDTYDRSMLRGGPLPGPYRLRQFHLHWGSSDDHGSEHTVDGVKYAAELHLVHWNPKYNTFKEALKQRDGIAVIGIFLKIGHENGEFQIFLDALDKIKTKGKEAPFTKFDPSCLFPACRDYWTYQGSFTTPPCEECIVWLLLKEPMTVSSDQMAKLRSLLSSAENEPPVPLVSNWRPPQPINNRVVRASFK
Sequence of Carbonic anhydrase 5A, mitochondrial (P35218 whole entry): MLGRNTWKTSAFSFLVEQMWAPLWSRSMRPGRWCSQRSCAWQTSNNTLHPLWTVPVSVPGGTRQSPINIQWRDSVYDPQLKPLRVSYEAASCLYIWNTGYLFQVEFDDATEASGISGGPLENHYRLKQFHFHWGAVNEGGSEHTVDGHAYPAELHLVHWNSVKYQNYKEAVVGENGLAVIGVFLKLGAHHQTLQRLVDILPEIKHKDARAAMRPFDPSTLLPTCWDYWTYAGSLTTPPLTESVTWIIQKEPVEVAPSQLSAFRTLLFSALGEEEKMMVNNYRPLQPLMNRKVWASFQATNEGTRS
Sequence of Carbonic anhydrase 6 (P23280 whole entry): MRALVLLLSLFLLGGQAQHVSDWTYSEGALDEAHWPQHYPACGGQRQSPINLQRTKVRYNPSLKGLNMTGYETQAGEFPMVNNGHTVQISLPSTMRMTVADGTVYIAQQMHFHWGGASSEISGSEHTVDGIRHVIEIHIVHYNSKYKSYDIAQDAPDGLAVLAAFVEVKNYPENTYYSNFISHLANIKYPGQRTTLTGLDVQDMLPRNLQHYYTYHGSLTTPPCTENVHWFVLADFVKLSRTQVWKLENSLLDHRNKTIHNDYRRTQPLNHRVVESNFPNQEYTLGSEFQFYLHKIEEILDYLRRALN
Sequence of Carbonic anhydrase 14 (Q9ULX7 whole entry): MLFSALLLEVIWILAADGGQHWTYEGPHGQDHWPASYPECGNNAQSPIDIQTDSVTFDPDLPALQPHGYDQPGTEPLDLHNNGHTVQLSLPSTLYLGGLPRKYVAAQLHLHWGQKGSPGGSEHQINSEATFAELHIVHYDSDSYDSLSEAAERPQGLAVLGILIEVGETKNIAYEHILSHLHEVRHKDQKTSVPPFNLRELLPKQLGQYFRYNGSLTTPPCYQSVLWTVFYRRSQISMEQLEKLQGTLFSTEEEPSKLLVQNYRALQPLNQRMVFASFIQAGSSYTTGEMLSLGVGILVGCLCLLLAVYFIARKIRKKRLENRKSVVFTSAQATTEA
Sequence of Carbonic anhydrase 7 (P43166 whole entry): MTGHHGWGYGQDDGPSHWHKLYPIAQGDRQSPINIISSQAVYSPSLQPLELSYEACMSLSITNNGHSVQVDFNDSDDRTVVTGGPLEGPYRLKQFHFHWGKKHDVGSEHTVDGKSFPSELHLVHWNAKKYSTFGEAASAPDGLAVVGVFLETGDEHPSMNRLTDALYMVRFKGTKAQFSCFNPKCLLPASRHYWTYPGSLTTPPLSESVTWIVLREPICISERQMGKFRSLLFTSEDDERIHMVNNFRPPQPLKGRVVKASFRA
Sequence of Carbonic anhydrase 12 (O43570 whole entry): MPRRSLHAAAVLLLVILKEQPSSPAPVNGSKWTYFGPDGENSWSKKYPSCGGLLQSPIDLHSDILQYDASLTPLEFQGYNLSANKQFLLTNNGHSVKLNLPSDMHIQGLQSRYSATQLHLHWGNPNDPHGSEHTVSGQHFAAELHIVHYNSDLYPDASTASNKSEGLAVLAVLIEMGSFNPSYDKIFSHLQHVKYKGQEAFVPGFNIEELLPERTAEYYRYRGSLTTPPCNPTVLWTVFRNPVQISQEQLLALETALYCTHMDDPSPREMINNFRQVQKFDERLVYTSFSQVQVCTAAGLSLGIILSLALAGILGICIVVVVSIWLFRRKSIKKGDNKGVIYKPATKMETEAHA
Sequence of Carbonic anhydrase 5B, mitochondrial (Q9Y2D0 whole entry): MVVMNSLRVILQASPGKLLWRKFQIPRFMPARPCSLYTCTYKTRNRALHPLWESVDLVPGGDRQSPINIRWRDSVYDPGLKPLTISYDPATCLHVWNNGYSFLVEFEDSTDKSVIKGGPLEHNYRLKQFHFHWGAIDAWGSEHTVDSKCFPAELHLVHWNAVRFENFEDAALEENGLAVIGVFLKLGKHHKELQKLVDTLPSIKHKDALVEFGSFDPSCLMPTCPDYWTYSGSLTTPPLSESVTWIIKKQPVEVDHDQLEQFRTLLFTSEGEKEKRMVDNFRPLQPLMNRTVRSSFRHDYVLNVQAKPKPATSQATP
Sequence of Carbonic anhydrase 1 (P00915 whole entry): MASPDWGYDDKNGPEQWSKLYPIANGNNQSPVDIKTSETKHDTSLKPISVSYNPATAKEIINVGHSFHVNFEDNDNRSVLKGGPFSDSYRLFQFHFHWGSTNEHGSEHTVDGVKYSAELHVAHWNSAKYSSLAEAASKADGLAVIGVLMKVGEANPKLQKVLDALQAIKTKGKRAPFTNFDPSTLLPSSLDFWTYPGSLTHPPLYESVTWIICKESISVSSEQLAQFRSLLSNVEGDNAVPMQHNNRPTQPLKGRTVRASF
Sequence of Carbonic anhydrase 4 (P22748 whole entry): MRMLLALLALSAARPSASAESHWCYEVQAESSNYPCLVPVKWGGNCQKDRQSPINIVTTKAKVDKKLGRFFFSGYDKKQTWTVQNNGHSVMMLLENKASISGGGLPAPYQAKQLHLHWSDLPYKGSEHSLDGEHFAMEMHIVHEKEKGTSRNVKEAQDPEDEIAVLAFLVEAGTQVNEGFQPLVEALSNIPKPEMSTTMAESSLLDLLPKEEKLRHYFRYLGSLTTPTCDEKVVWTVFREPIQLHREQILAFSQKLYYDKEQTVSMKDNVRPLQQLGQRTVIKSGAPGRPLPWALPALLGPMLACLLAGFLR
Sequence of Carbonic anhydrase 13 (Q8N1Q1 whole entry): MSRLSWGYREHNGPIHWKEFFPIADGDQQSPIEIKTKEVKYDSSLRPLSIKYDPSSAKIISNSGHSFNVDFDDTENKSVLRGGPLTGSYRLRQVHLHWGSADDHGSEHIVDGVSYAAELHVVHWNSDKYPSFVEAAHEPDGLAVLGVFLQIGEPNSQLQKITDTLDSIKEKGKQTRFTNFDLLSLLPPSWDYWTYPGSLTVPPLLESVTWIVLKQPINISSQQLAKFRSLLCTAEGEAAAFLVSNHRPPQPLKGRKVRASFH

Ki (Carbonic anhydrase 9) [µM] | Ki (Carbonic anhydrase 12) [µM] | Ki (Carbonic anhydrase 14) [µM] | Ki (Carbonic anhydrase 6) [µM] | Ki (Carbonic anhydrase 15) [µM] | Ki [1] [µM] | Ki (Carbonic anhydrase 3) [µM] | Ki [2] [µM] | Ki (Carbonic anhydrase 4) [µM] | Ki (Carbonic anhydrase 7) [µM] | SMILES | Ki (Carbonic anhydrase 13) [µM] | Ki (Carbonic anhydrase 1) [µM] | Ki (Carbonic anhydrase 2) [µM]
5.03 | 4.72 | 11.5 | 4.91 | 7.68 | 4.21 | 3.58 | 4.02 | 4.9 | 0.45 | Oc1cc(O)c2c(c1)O[C@H](c1ccc(O)c(O)c1)[C@@H](O)C2 [CATECHIN] | 10.5 | 2.42 | 1.84
4.05 | 3.48 | 11.7 | 9.94 | 5.09 | 10.2 | 11.3 | 9.46 | 4.97 | 9.3 | COc1cc(/C=C/C(=O)CC(=O)/C=C/c2ccc(O)c(OC)c2)ccc1O [CURCUMIN] | 6.85 |  | 

The next lines start with the molecule.

SMILES | Ki (Carbonic anhydrase 9) [µM] | Ki (Carbonic anhydrase 12) [µM] | Ki (Carbonic anhydrase 14) [µM] | Ki (Carbonic anhydrase 6) [µM] | Ki (Carbonic anhydrase 15) [µM] | Ki [1] [µM] | Ki (Carbonic anhydrase 3) [µM] | Ki [2] [µM] | Ki (Carbonic anhydrase 4) [µM] | Ki (Carbonic anhydrase 7) [µM] | Ki (Carbonic anhydrase 13) [µM] | Ki (Carbonic anhydrase 1) [µM] | Ki (Carbonic anhydrase 2) [µM]
CC(CCc1ccc(O)cc1)NCCc1ccc(O)c(O)c1 (centres undefined) [DOBUTAMINE] | 9.82 | 4.35 | 12 | 9.47 | 0.39 | 0.73 | 7.4 | 0.89 | 8.98 | 4.3 | 9.53 | 1.92 | 0.48
O=C(O)/C=C/c1ccccc1O [O-COUMARIC ACID] | > 1000 | > 1000 | > 1000 | > 1000 | > 1000 | > 1000 | > 1000 | 578 | 62.3 | > 1000 | > 1000 | 3.1 | 9.2
Oc1ccccc1 [PHENOL] |  |  |  |  |  |  |  |  |  |  | 697 |  | 
Oc1ccc(/C=C/c2cc(O)cc(O)c2)cc1 [RESVERATROL] | 0.81 | 0.95 | 0.83 | 8.07 | 9.36 | 4.75 | 9.09 | 4.64 | 4.47 | 4.35 | 4.09 | 2.21 | 2.77

Source: ChEMBL document CHEMBL1221287 (Bioorg Med Chem Lett, 2010)
